{"source": "patent US20260217748A1", "about": "“IBOGAINE AND N[…] AND METHODS OF USE” (Atai Therapeutics, Inc., priority 2022, published 2026)", "key": {"PBS solubility": {"assay": "PBS solubility", "format": "physicochemical", "settings": "aqueous buffer"}, "hERG": {"molecular_target": "hERG (Homo sapiens, UniProt Q12809)", "sequence (Q12809 whole entry)": "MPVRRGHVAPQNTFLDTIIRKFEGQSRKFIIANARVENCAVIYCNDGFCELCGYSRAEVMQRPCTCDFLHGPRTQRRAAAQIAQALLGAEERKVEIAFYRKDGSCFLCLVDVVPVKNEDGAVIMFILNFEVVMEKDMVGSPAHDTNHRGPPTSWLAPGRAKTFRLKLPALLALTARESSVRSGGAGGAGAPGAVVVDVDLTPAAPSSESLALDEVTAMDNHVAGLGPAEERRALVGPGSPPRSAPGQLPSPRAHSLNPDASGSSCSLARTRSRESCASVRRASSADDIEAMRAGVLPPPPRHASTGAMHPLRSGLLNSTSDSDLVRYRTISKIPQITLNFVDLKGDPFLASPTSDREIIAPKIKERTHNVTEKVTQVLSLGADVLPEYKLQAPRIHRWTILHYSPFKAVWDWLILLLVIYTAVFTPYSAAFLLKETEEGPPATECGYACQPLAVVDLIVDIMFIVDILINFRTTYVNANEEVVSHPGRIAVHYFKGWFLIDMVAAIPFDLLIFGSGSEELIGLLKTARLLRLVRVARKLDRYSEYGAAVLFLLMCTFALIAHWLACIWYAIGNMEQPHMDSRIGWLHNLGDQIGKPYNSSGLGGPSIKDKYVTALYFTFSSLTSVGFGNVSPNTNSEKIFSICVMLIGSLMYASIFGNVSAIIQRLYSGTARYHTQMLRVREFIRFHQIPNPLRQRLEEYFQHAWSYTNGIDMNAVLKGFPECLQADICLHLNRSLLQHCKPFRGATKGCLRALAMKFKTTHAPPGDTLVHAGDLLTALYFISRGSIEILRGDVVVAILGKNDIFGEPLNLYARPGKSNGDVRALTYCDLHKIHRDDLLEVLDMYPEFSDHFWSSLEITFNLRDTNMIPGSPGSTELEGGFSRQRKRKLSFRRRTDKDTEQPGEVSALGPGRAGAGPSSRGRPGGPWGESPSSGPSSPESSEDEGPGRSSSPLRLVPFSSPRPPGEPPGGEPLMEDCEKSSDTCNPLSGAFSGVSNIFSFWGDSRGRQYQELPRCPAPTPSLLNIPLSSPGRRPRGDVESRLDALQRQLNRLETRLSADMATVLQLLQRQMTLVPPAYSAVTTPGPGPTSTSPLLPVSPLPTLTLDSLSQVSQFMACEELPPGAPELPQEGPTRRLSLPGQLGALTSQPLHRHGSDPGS", "assay": "hERG Binding assay"}, "Chrom logD": {"assay": "Chrom logD", "format": "physicochemical"}, "Microsome half-life RLM": {"assay": "Microsome half-life RLM", "format": "in vitro ADME", "settings": "rat, liver microsomes"}, "SERT": {"molecular_target": "SERT (Homo sapiens, UniProt P31645)", "sequence (P31645 whole entry, species assumed)": "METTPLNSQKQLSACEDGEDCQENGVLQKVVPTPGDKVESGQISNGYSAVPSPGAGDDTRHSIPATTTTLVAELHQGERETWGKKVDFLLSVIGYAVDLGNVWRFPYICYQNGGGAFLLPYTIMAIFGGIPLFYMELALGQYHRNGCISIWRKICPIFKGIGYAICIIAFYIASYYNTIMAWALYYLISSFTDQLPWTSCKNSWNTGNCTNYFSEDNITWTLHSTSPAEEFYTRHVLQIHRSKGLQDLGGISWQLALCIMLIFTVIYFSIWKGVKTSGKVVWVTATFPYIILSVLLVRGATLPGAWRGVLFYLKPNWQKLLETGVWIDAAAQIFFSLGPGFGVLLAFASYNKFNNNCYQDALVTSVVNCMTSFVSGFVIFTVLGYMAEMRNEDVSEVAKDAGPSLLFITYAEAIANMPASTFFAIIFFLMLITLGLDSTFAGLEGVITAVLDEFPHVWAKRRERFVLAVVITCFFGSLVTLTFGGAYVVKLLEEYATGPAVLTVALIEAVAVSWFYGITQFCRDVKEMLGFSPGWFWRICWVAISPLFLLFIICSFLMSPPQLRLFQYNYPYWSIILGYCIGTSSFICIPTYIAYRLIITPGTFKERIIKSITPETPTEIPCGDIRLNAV", "assay": "SERT Cellular Functional assay", "format": "cell-based"}}, "data": [{"smiles": "CC[C@H]1CC2C[C@H]3c4[nH]c5ccc(OC(C)OC)cc5c4CC[N@@](C2)C13", "note": "(stereo partly drawn) [Compound 3, (6R,7S,9S,11S)-7-ethyl-2-(1-methoxyethoxy)-6,6a,7,8,9,10,12,13-octahydro-5H-6,9-methanopyrido[1′,2′:1,2]azepino[4,5-b]indole]", "values": [{"measurement": "solubility", "setting": "PBS solubility", "value": 245, "unit": "µM"}, {"measurement": "IC50", "setting": "hERG", "value": "> 10", "unit": "µM"}, {"measurement": "chromatographic logD", "setting": "Chrom logD", "value": 4.9}, {"measurement": "half-life", "setting": "Microsome half-life RLM; +NADPH", "value": 4, "unit": "min"}, {"measurement": "half-life", "setting": "Microsome half-life RLM; −NADPH", "value": "> 200", "unit": "min"}, {"measurement": "IC50", "setting": "SERT", "value": 11.9, "unit": "µM"}]}]}
